Calls of active or inactive are those of the source. The calls are words filed in the database; no cut-off is given here.
Key:
HCT-116 = test: Antiproliferative activity against human HCT116 cells after 48 hrs; format: functional; settings: HCT-116, 48 h; for CC50: read-out: LC50 (the source's name)
Mus musculus [1] = test: Survival of Plasmodium berghei KBG 173 infected CD1 mice (Mus musculus) at 40 mg/kg/day; format: ADME, organism-based; settings: in vivo
SF-268 = test: Antiproliferative activity against human SF268 cells after 48 hrs; format: functional; settings: SF-268, 48 h
Plasmodium falciparum [2] = test: Antimalarial activity against Plasmodium falciparum W2; format: functional, organism-based
Mus musculus [3] = test: Survival of Plasmodium berghei KBG 173 infected CD1 mice (Mus musculus) at 10 mg/kg/day; format: ADME, organism-based; settings: in vivo
[4] = Metabolic stability in mouse liver microsomes; format: ADME, Microsome; settings: liver microsomes
NCI = test: Growth inhibition of human NCI DTP 60 cells; format: functional
Plasmodium berghei [5] = test: Antimalarial activity as survivors after 31 days in Plasmodium berghei KBG173 infected CD1 mice (Mus musculus) at 10 mg/kg/day; format: functional, organism-based; settings: KBG 173
Plasmodium falciparum [6] = test: Antimalarial activity against Plasmodium falciparum TM91C235; format: functional, organism-based
Plasmodium berghei [7] = test: Antimalarial activity as survivors after 31 days in Plasmodium berghei KBG173 infected CD1 mice (Mus musculus) at 320 mg/kg/day; format: functional, organism-based; settings: KBG 173
[8] = (§1) Metabolic stability in human liver microsomes; format: ADME, Microsome; settings: liver microsomes
LOX IMVI = test: Antiproliferative activity against human LOX IMVI cells after 48 hrs; format: functional
Mus musculus [9] = test: Survival of Plasmodium berghei KBG 173 infected CD1 mice (Mus musculus) at 320 mg/kg/day; format: ADME, organism-based; settings: in vivo
[10] = (§2) Toxicity in Plasmodium berghei KBG 173 infected CD1 mice (Mus musculus); format: organism-based; settings: CD1, mouse, in vivo
Mus musculus [11] = species: Mus musculus; test: as §2; format: organism-based; settings: mouse, in vivo
Plasmodium falciparum [12] = test: Antimalarial activity against Plasmodium falciparum D6; format: functional, organism-based
Mus musculus [13] = test: Survival of Plasmodium berghei KBG 173 infected CD1 mice (Mus musculus) at 80 mg/kg/day; format: ADME, organism-based; settings: in vivo
HOP-62 = test: Antiproliferative activity against human HOP62 cells after 48 hrs; format: functional; settings: HOP-62, 48 h
T47D = test: Antiproliferative activity against human T47D cells after 48 hrs; format: functional
HCC 2998 = test: Antiproliferative activity against human HCC2998 cells after 48 hrs; format: functional; settings: HCC 2998, 48 h
HCT-15 = test: Antiproliferative activity against human HCT15 cells after 48 hrs; format: functional; settings: HCT-15, 48 h
U-251 = test: Antiproliferative activity against human U251 cells after 48 hrs; format: functional; settings: U-251, 48 h
786-0 = test: Antiproliferative activity against human 786-0 cells after 48 hrs; format: functional; settings: Homo sapiens, 786-0, 48 h
Mus musculus [14] = test: Survival of Plasmodium berghei KBG 173 infected CD1 mice (Mus musculus) at 160 mg/kg/day; format: ADME, organism-based; settings: in vivo
M14 = test: Antiproliferative activity against human M14 cells after 48 hrs; format: functional; settings: M14, 48 h, read-out: LC50 (the source's name)
CCRF-CEM = test: Antiproliferative activity against human CCRF-CEM cells after 48 hrs; format: functional
COLO 205 = test: Antiproliferative activity against human COLO205 cells after 48 hrs; format: functional
CAKI-1 = test: Antiproliferative activity against human CAKI1 cells after 48 hrs; format: functional; settings: CAKI-1, 48 h
OVCAR-3 = test: Antiproliferative activity against human OVCAR-3 cells after 48 hrs; format: functional; settings: OVCAR-3, 48 h
NCI-H322M = test: Antiproliferative activity against human NCI-H322M cells after 48 hrs; format: functional
Mus musculus [15] = test: Survival of Plasmodium berghei KBG 173 infected CD1 mice (Mus musculus) at 20 mg/kg/day; format: ADME, organism-based; settings: in vivo
Liver microsomes = test: as §1; format: ADME, Microsome; settings: microsomes
MDA-MB-435 = test: Antiproliferative activity against human MDA-MB-435 cells after 48 hrs; format: functional
[16] = read-out: LC50 (the source's name)
[17] = Plasmodium falciparum, TM91C235

## CC(=O)O[C@H]1C[C@H]2[C@@H]([C@H](OC(C)=O)C[C@@H]3CC4(CC[C@@]32C)OOC2(CCCCC2)OO4)[C@@H]2CC[C@H]([C@H](C)CCC(=O)NCCN(C)C)[C@@]12C
HCT-116
  GI50: 83.1 nM
  TGI: 1690 nM
  CC50: 4620 nM
Mus musculus [1]
  Survival: 21 days
SF-268
  GI50: 785 nM
  TGI: 2250 nM
SF-268; [16]
  CC50: 5.35 µM
Plasmodium falciparum [2]; Plasmodium falciparum, W2
  IC50: 14.5 nM
  IC90: 45.1 nM
Mus musculus [3]
  Survival: 8 days
[4]
  half-life: 40 min
NCI; Homo sapiens, NCI
  GI50: < 10 nM
Plasmodium berghei [5]
  Activity: inactive
Plasmodium falciparum [6]; [17]
  IC50: 19.6 nM
  IC90: 37.9 nM
Plasmodium berghei [7]
  Activity: Active
[8]
  half-life: 40 min
LOX IMVI; Homo sapiens, LOX IMVI, 48 h
  GI50: < 10 nM
  LC50 (concentration killing 50% of cells): 68.8 nM
  TGI: 22.4 nM
Mus musculus [9]
  Survival: 31 days
[10]
  MTD: > 960 mg/kg
Mus musculus [11]
  MCD: <= 40 mg/kg/day
Plasmodium falciparum [12]; Plasmodium falciparum, D6
  IC50: 28.2 nM
  IC90: 45.1 nM
Mus musculus [13]
  Survival: 25 days
HOP-62
  GI50: < 10 nM
  LC50: 83 nM
  TGI: 16.6 nM

## CC(=O)O[C@H]1C[C@H]2[C@@H](CC[C@@H]3CC4(CC[C@@]32C)OOC2(CCC(C)CC2)OO4)[C@@H]2CC[C@H]([C@H](C)CCC(=O)NCCN(C)C)[C@@]12C (stereo in doubt; 16)
HCT-116
  GI50: 9 nM
  TGI: 21 nM
  CC50: 47 nM
T47D
  GI50: 130 nM
  TGI: 410 nM
Mus musculus [1]
  Survival: 9 days
Plasmodium falciparum [2]
  IC50: 16.8 nM
  IC90: 19.8 nM
[4]
  half-life: > 120 min
Plasmodium falciparum [6]
  IC50: 14.7 nM
  IC90: 24.2 nM
HCC 2998
  GI50: 77 nM
  TGI: 210 nM
HCC 2998; [16]
  CC50: 980 nM
HCT-15
  GI50: 94 nM
[8]
  half-life: 110 min
U-251
  GI50: 26 nM
  TGI: 87 nM
786-0
  GI50: 60 nM
  TGI: 150 nM
786-0; [16]
  CC50: 390 nM
LOX IMVI
  LC50 (concentration killing 50% of cells): 22 nM
LOX IMVI; Homo sapiens, LOX IMVI, 48 h
  GI50: < 5 nM
  TGI: 7.4 nM
Mus musculus [14]
  Survival: 29 days
M14
  CC50: 460 nM
Plasmodium falciparum [12]
  IC50: 12.8 nM
  IC90: 18.7 nM
CCRF-CEM
  GI: 0.056 µM
CCRF-CEM; Homo sapiens, CCRF-CEM, 48 h
  LC50 (concentration killing 50% of cells): 500 nM
  TGI: 170 nM
HOP-62
  GI50: 54 nM
  LC50: 1160 nM
  TGI: 230 nM
COLO 205
  GI: 0.083 µM
COLO 205; Homo sapiens, COLO 205, 48 h
  TGI: 20 nM
COLO 205; Homo sapiens, COLO 205, 48 h, read-out: LC50 (the source's name)
  CC50: 490 nM

## CC(=O)O[C@H]1C[C@H]2[C@@H]([C@H](OC(C)=O)C[C@@H]3CC4(CC[C@@]32C)OOC2(CCC(C)CC2)OO4)[C@@H]2CC[C@H]([C@H](C)CCC(=O)NCCN(C)C)[C@@]12C (stereo in doubt; 22)
Mus musculus [1]
  Survival: 19 days
Plasmodium falciparum [2]
  IC50: 16.7 nM
  IC90: 24.8 nM
CAKI-1
  GI50: 1370 nM
  TGI: 2690 nM
CAKI-1; [16]
  CC50: 5.29 µM
OVCAR-3
  GI50: 1190 nM
  TGI: 2470 nM
OVCAR-3; [16]
  CC50: 5.11 µM
[4]
  half-life: 77 min
NCI
  GI50: 180 nM
Plasmodium falciparum [6]
  IC50: 12.2 nM
  IC90: 18.5 nM
NCI-H322M
  GI50: 1460 nM
  TGI: 2790 nM
NCI-H322M; [16]
  CC50: 5.34 µM
Mus musculus [15]
  Survival: 9 days
Liver microsomes
  t1/2: 42 min
LOX IMVI
  GI50: 183 nM
Mus musculus [11]
  MCD: 40 mg/kg/day
MDA-MB-435
  GI50: 1530 nM
  TGI: 2910 nM
MDA-MB-435; Homo sapiens, MDA-MB-435, 48 h, read-out: LC50 (the source's name)
  CC50: 5.52 µM
Plasmodium falciparum [12]
  IC50: 18.6 nM
  IC90: 27.8 nM
CCRF-CEM
  GI50: 258 nM
  TGI: 725 nM
